Data on 17 molecules can be found in ChEMBL document CHEMBL4422611, “A review on diverse heterocyclic compounds as the privileged scaffolds in antimalarial drug discovery” (Eur J Med Chem, 2018).

Converted amounts (≈) assume the structure as drawn.

Assay [1] has as its system Plasmodium falciparum. As to the kind of experiment: Antimalarial activity against Plasmodium falciparum infected in human RBC after 72 hrs by Giemsa staining based assay. The assay is classed as functional, organism-based.
Assay [2] has as its system Plasmodium falciparum. The assay can be described thus: Antimalarial activity against synchronized ring stage of Plasmodium falciparum infected in human RBC measured after 48 hrs. The assay is classed as functional, organism-based.
The test system of assay [3] is Plasmodium falciparum. As to the kind of experiment: Antimalarial activity against Plasmodium falciparum. Type of assay: functional, organism-based.
The test system of assay [4] is Plasmodium falciparum. As to the kind of experiment: Antimalarial activity against synchronized ring stage of chloroquine-sensitive Plasmodium falciparum 3D7 infected in human RBC assessed as parasite death at 5 ug/ml after 40 hrs by Giemsa staining based microscopic analysis relative to control. The assay is classed as functional.
The subject of assay [5] is Plasmodium falciparum. The assay can be described thus: Antimalarial activity against synchronized ring stage of chloroquine-resistant Plasmodium falciparum RKL2 infected in human RBC assessed as parasite death at 5 ug/ml after 40 hrs by Giemsa staining based microscopic analysis relative to control. Type of assay: functional.

In the case of `COc1ccc2nc(Cl)c(/C=C3\C=C(c4ccc(C)cc4C)OC3=O)cc2c1`, the IC50 in the assay with Plasmodium falciparum [1] turned out to be 0.5 µg/mL (≈ 1.28 µM). For the molecule `Cc1nn(-c2ccccc2)c(-n2ccnc2)c1C1CC(c2ccc(Br)cc2)=NO1` (stereo not drawn), inhibition in the assay with Plasmodium falciparum [2] was half-maximal at 0.036 µg/mL (IC50). Still for that read-out and setting: next, `CCOC(=O)C1=C(N)Oc2c(c(=O)n(C)c(=O)n2C)C1c1c(C)nn(-c2ccccc2)c1-n1ccnc1` (stereo not drawn): 0.049 µg/mL. On to `COc1ccc(NN2C(N)=C(C#N)C(c3c(C)nn(-c4ccccc4)c3Oc3cccc(C(F)(F)F)c3)C3=C2CC(C)(C)CC3=O)cc1` (stereo not drawn), for which, in the assay on Plasmodium falciparum [3], the IC50 amounted to 0.042 µg/mL (≈ 0.0642 µM). Regarding `Cc1nn(-c2ccccc2)c(-n2ccnc2)c1C1C(C#N)=C(N)Oc2c1ccc1ccccc21` (stereo not drawn), half-maximal inhibition in the assay on Plasmodium falciparum [2] (IC50) was put at 0.54 µg/mL. The same measure, in the same setting: next, `Cc1n[nH]c2c1C(C1CCCCC1)c1c(n(C)c(=O)n(C)c1=O)N2` (stereo not drawn): 0.033 µg/mL; `Cc1nn(-c2ccccc2)c(Oc2ccccc2F)c1-c1nnc(-c2ccc(Br)cc2)o1`: 506 nM. For the molecule `Cc1nn(-c2ccccc2)c(-n2ccnc2)c1C1CC(c2ccc(Br)cc2)=NN1` (stereo not drawn), in the assay on Plasmodium falciparum [2], half-maximal inhibition (IC50) required 0.012 µg/mL. As for `Clc1ccc2c(NCCN3CCN(c4nc(N5CCOCC5)nc(N5CCOCC5)n4)CC3)ccnc2c1`, the Activity with Plasmodium falciparum [4] is listed as 6%; in the assay on Plasmodium falciparum [5], 8%. In the assay on Plasmodium falciparum [2], `Cc1nn(-c2ccccc2)c(-n2ccnc2)c1C1CC(c2ccc(O)cc2)=NN1` (stereo not drawn) showed an IC50 of 0.036 µg/mL. Same read-out and setting: then `Cc1nn(-c2ccccc2)c2c1C(c1cccs1)c1c(n(C)c(=O)n(C)c1=O)N2` (stereo not drawn), with 0.033 µg/mL; and `Cc1nn(-c2ccccc2)c(-n2ccnc2)c1C1C(C#N)=C(N)Oc2c1c(=O)oc1ccccc21` (stereo not drawn), with 0.42 µg/mL; and `CCOC(=O)C1=C(N)OC2=C(C(=O)CC(C)(C)C2)C1c1c(C)nn(-c2ccccc2)c1-n1ccnc1` (stereo not drawn), with 0.067 µg/mL. On the same count and under the same terms, then `Cc1n[nH]c2c1C(c1c(C)nn(-c3ccccc3)c1-n1ccnc1)C(C#N)=C(N)O2` (stereo not drawn), with 0.57 µg/mL.

Turning to `Cc1nn(-c2ccccc2)c2c1C(c1c(C)nn(-c3ccccc3)c1-n1ccnc1)C(C#N)=C(N)O2` (stereo not drawn), the IC50 in the assay on Plasmodium falciparum [2] was 0.034 µg/mL. Against the preceding molecule, the IC50 is about 17-fold lower. In the case of `CCOC(=O)C1=C(N)Oc2c(ccc(O)c2C)C1c1c(C)nn(-c2ccccc2)c1-n1ccnc1` (stereo not drawn), 0.061 µg/mL corresponded to half-maximal inhibition in the assay on Plasmodium falciparum [2] (IC50). Still for that read-out and setting: next, `Cc1nn(-c2ccccc2)c(-n2ccnc2)c1C1C(C#N)=C(N)Oc2ccc3ccccc3c21` (stereo not drawn): 0.32 µg/mL.
